# Measurements taken from paper PMC6830242, “In vitro inhibition of Mycobacterium tuberculosis β-carbonic anhydrase 3 with Mono- and dithiocarbamates and evaluation of their toxicity using zebrafish developing embryos” (Journal of Enzyme Inhibition and Medicinal Chemistry, 2019).
# Biological target: T1, Mtb β-CA3 (Mycobacterium tuberculosis, UniProt P96878)
# T1 construct: gene Rv3273
# Assay: stopped-flow CO2 hydrase assay
# Type: biochemical
# Source text: stopped-flow CO2 hydrase assay on Mtb β-CA3
# T1 sequence (P96878 555-764 limits assumed): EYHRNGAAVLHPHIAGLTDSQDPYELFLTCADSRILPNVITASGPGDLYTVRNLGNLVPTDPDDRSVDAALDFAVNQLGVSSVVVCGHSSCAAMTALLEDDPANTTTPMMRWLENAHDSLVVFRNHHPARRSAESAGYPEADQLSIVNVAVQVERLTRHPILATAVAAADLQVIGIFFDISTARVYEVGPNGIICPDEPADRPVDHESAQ
row,SMILES,Ki [nM]
1,"CCCN(CCC)C(=O)S [compound 1, 1]",559
2,"O=C(S)N1CCOCC1 [compound 2, MTC based morpholine 2]",748
3,"O=C(S)N1CCN(C(=O)S)CC1 [compound 3, 3]",812
4,"O=C(S)NCCc1ccccc1 [compound 5, phenylethyl 5]",93
5,"O=C(CN1CCN(C(=O)S)CC1)NC1CCCCC1 [compound 6, 6]",781
6,"COc1ccc(CCNC(=O)S)cc1OC [compound 7, 3,4-dimethoxyphenylethyl derivative 7]",97.9
7,"CC(C)CN(CC(C)C)C(=S)S [compound 8, DTC 8]",43
8,"S=C(S)N1CCOCC1 [compound 9, morpholine DTC 9]",2.4
9,"S=C(S)N1CCN(C(=S)S)CC1 [compound 10, bis-piperazine derivative DTC 10]",8
10,"O=C(CN1CCN(C(=S)S)CC1)NC1CCCCC1 [compound 11, DTC 11]",> 2000
